The results in this text go back to patent US8097628B2, “Compounds” (Glaxo Group Limited, priority 2008, dated 2012).

The term MIC denotes the smallest concentration in the dilution series that meets the test's criterion for growth inhibition.

For the test, the system named is Mycobacterium tuberculosis H37Rv. Briefly: Mycobacterium tuberculosis H37Rv Inhibition Assay. Format: cell-based.
Where [1] appears, read: ATCC 25618 / H37Rv, H37Rv strain (ATCC25618), Middlebrook 7H9, resazurin fluorescence, read-out: MtB MIC.
The mark [2] stands for this setting: H37Rv inhibition assay, read-out: MIC value.
Where [3] appears, read: ATCC 25618 / H37Rv, read-out: MtB MIC.

Converted amounts (≈) assume the structure as drawn. Counter-ions that a name gives are not always drawn. Like-named read-outs stand apart in the source and are kept apart here. A value given as a limit tells only on which side of the number the result lay.

As to `O=c1ccc2ccc(=O)n3c2n1C[C@H]3CN1CCC(NCc2cnc(CO)c(Cl)c2)CC1` [Example 56, (1R)-1-{[4-({[5-chloro-6-(hydroxymethyl)-3-pyridinyl]methyl}amino)-1-piperidinyl]methyl}-1,2-dihydro-4H,9H-imidazo[1,2,3-ij]-1,8-naphthyridine-4,9-dione], under setting [1], the MIC is 0.3 µg/mL (≈ 0.658 µM). On the same count and under the same terms, in the case of `O=c1ccc2ncc(=O)n3c2n1CC3CN1CCC(NCc2cncc(Cl)c2)CC1` (stereo not drawn) [Example 42, 2-[(4-{[(5-chloro-3-pyridinyl)methyl]amino}-1-piperidinyl)methyl]-1,2-dihydro-3H,8H-2a,5,8a-triazaacenaphthylene-3,8-dione] it was 1.07 µg/mL (≈ 2.5 µM).

For the compound `O=c1ccc2ncc(=O)n3c2n1CC3CN1CCC(NCc2cc(Br)cs2)CC1` (stereo not drawn) [Example 35, 2-[(4-{[(4-bromo-2-thienyl)methyl]amino}-1-piperidinyl)methyl]-1,2-dihydro-3H,8H-2a,5,8a-triazaacenaphthylene-3,8-dione], the MIC runs as follows: under setting [1], 1.19 µg/mL (≈ 2.5 µM); under setting [2], over 1 µg/mL.

On to `Cc1ncc(CNC2CCN(C[C@@H]3Cn4c(=O)ccc5ccc(=O)n3c54)CC2)cc1F` [Example 63, (1R)-1-[(4-{[(5-fluoro-6-methyl-3-pyridinyl)methyl]amino}-1-piperidinyl)methyl]-1,2-dihydro-4H,9H-imidazo[1,2,3-ij]-1,8-naphthyridine-4,9-dione], for which the MIC under setting [2] is over 1 µg/mL. As to `Cc1cc(CNC2CCN(C[C@@H]3Cn4c(=O)ccc5ccc(=O)n3c54)CC2)cnc1C` [Example 13, (1R)-1-[(4-{[(5,6-dimethyl-3-pyridinyl)methyl]amino}-1-piperidinyl)methyl]-1,2-dihydro-4H,9H-imidazo[1,2,3-ij]-1,8-naphthyridine-4,9-dione], the MIC runs as follows: under setting [1], 1.05 µg/mL (≈ 2.5 µM); under setting [2], over 1 µg/mL.

Turning to `Cl.O=c1ccc2ncc(=O)n3c2n1CC3CN1CCC(NCc2ccc(C(F)(F)F)nc2)CC1` (stereo not drawn) [Example 20, 2-{[4-({[6-(trifluoromethyl)-3-pyridinyl]methyl}amino)-1-piperidinyl]methyl}-1,2-dihydro-3H,8H-2a,5,8a-triazaacenaphthylene-3,8-dione hydrochloride], the MIC under setting [1] stood at 0.311 µg/mL. Same read-out and setting: in the case of `O=c1ccc2ncc(=O)n3c2n1C[C@@H]3CN1CCC(NCc2ccc(Cl)c(Cl)c2)CC1` [Example 47, (2S)-2-[(4-{[(3,4-dichlorophenyl)methyl]amino}-1-piperidinyl)methyl]-1,2-dihydro-3H,8H-2a,5,8a-triazaacenaphthylene-3,8-dione] it was 0.072 µg/mL (≈ 0.156 µM); in that of `O=c1ccc2ncc(=O)n3c2n1CC3CN1CCC(NCc2ccc(C(F)(F)F)cc2)CC1` (stereo not drawn) [Example 28, 2-{[4-({[4-(trifluoromethyl)phenyl]methyl}amino)-1-piperidinyl]methyl}-1,2-dihydro-3H,8H-2a,5,8a-triazaacenaphthylene-3,8-dione], 0.144 µg/mL (≈ 0.313 µM).

`Cc1ncc(CNC2CCN(C[C@@H]3Cn4c(=O)ccc5ncc(=O)n3c54)CC2)cc1Cl.Cl` [Example 2, (2R)-2-[(4-{[(5-chloro-6-methyl-3-pyridinyl)methyl]amino}-1-piperidinyl)methyl]-1,2-dihydro-3H,8H-2a,5,8a-triazaacenaphthylene-3,8-dione hydrochloride]: under setting [1], the MIC turned out to be 0.04 µg/mL. Regarding `O=c1ccc2ncc(=O)n3c2n1CC3CN1CCC(NCc2cccc(Cl)c2)CC1` (stereo not drawn) [Example 22, 2-[(4-{[(3-chlorophenyl)methyl]amino}-1-piperidinyl)methyl]-1,2-dihydro-3H,8H-2a,5,8a-triazaacenaphthylene-3,8-dione], the MIC under setting [1] came to 1.06 µg/mL (≈ 2.5 µM) and the minimal inhibitory concentration (MIC) under setting [2] was over 1 µg/mL. Take `Cl.N#Cc1cc(CNC2CCN(C[C@@H]3Cn4c(=O)ccc5ncc(=O)n3c54)CC2)ccc1F` [Example 5, 5-{[(1-{[(2R)-3,8-dioxo-1,2-dihydro-3H,8H-2a,5,8a-triazaacenaphthylen-2-yl]methyl}-4-piperidinyl)amino]methyl}-2-fluorobenzonitrile hydrochloride]: the minimum inhibitory concentration (MIC) under setting [1] turned out to be 0.11 µg/mL.

Regarding `COc1cc(CNC2CCN(CC3Cn4c(=O)ccc5ncc(=O)n3c54)CC2)ccc1C` (stereo not drawn) [Example 57, 2-{[4-({[4-methyl-3-(methyloxy)phenyl]methyl}amino)-1-piperidinyl]methyl}-1,2-dihydro-3H,8H-2a,5,8a-triazaacenaphthylene-3,8-dione], the MIC under setting [1] was determined as 1.09 µg/mL (≈ 2.5 µM). As to `Cc1cc(CNC2CCN(CC3Cn4c(=O)ccc5ncc(=O)n3c54)CC2)cnc1C` (stereo not drawn) [Example 14, 2-[(4-{[(5,6-dimethyl-3-pyridinyl)methyl]amino}-1-piperidinyl)methyl]-1,2-dihydro-3H,8H-2a,5,8a-triazaacenaphthylene-3,8-dione], the MIC by setting is: under setting [1], 2.1 µg/mL (≈ 5 µM); under setting [2], over 1 µg/mL. In the case of `Cl.O=c1ccc2ccc(=O)n3c2n1C[C@H]3CN1CCC(NCc2ccc(Cl)c(Cl)c2)CC1` [Example 31, (1R)-1-[(4-{[(3,4-dichlorophenyl)methyl]amino}-1-piperidinyl)methyl]-1,2-dihydro-4H,9H-imidazo[1,2,3-ij]-1,8-naphthyridine-4,9-dione hydrochloride], under setting [1], the MIC turned out to be 0.019 µg/mL. Same read-out and setting: the figure for `O=c1ccc2ncc(=O)n3c2n1CC3CN1CCC(NCc2cnc(Cl)s2)CC1` (stereo not drawn) [Example 37, 2-[(4-{[(2-chloro-1,3-thiazol-5-yl)methyl]amino}-1-piperidinyl)methyl]-1,2-dihydro-3H,8H-2a,5,8a-triazaacenaphthylene-3,8-dione] is 2.17 µg/mL (≈ 5 µM).

For `O=c1ccc2ncc(=O)n3c2n1C[C@@H]3CN1CCC(NCc2ccc(C(F)(F)F)nc2)CC1` [Example 48, (2S)-2-{[4-({[6-(trifluoromethyl)-3-pyridinyl]methyl}amino)-1-piperidinyl]methyl}-1,2-dihydro-3H,8H-2a,5,8a-triazaacenaphthylene-3,8-dione], the MIC is 2.3 µg/mL (≈ 5 µM) under setting [1] and over 1 µg/mL under setting [2]. Take `Cc1ncc(CNC2CCN(CC3Cn4c(=O)ccc5ncc(=O)n3c54)CC2)cc1Cl` (stereo not drawn) [Example 26, 2-[(4-{[(5-chloro-6-methyl-3-pyridinyl)methyl]amino}-1-piperidinyl)methyl]-1,2-dihydro-3H,8H-2a,5,8a-triazaacenaphthylene-3,8-dione]: under setting [1], the MIC came out at 0.069 µg/mL (≈ 0.156 µM).

Regarding `Cc1ncc(CNC2CCN(C[C@@H]3Cn4c(=O)cnc5ccc(=O)n3c54)CC2)cc1Br` [Example 55, (1R)-1-[(4-{[(5-bromo-6-methyl-3-pyridinyl)methyl]amino}-1-piperidinyl)methyl]-1,2-dihydro-3H,8H-2a,5,8a-triazaacenaphthylene-3,8-dione hydrochloride], the MIC under setting [3] is 0.04 µg/mL.

For `O=c1ccc2ncc(=O)n3c2n1CC3CN1CCC(NCc2ccc(Cl)c(C(F)(F)F)c2)CC1` (stereo not drawn) [Example 16, 2-{[4-({[4-chloro-3-(trifluoromethyl)phenyl]methyl}amino)-1-piperidinyl]methyl}-1,2-dihydro-3H,8H-2a,5,8a-triazaacenaphthylene-3,8-dione], the MIC under setting [1] was determined as 0.077 µg/mL (≈ 0.156 µM).

In the case of `O=c1ccc2ccc(=O)n3c2n1C[C@H]3CN1CCC(NCc2ccc(C(F)(F)F)nc2)CC1` [Example 9, (1R)-1-{[4-({[6-(trifluoromethyl)-3-pyridinyl]methyl}amino)-1-piperidinyl]methyl}-1,2-dihydro-4H,9H-imidazo[1,2,3-ij]-1,8-naphthyridine-4,9-dione], the MIC under setting [3] stood at 0.14 µg/mL (≈ 0.305 µM).

As for `Cc1ccc(CNC2CCN(CC3Cn4c(=O)ccc5ncc(=O)n3c54)CC2)cc1F` (stereo not drawn) [Example 43, 2-[(4-{[(3-fluoro-4-methylphenyl)methyl]amino}-1-piperidinyl)methyl]-1,2-dihydro-3H,8H-2a,5,8a-triazaacenaphthylene-3,8-dione], the MIC under setting [1] amounted to 0.066 µg/mL (≈ 0.156 µM).

Take `Cc1cc(CNC2CCN(C[C@@H]3Cn4c(=O)ccc5ncc(=O)n3c54)CC2)ccc1F.Cl` [Example 6, (2R)-2-[(4-{[(4-fluoro-3-methylphenyl)methyl]amino}-1-piperidinyl)methyl]-1,2-dihydro-3H,8H-2a,5,8a-triazaacenaphthylene-3,8-dione hydrochloride]: the MIC under setting [1] was 0.29 µg/mL.

Consider `Cl.O=c1ccc2ncc(=O)n3c2n1C[C@H]3CN1CCC(NCc2ccc(Cl)c(Cl)c2)CC1` [Example 3, (2R)-2-[(4-{[(3,4-dichlorophenyl)methyl]amino}-1-piperidinyl)methyl]-1,2-dihydro-3H,8H-2a,5,8a-triazaacenaphthylene-3,8-dione], for which the MIC under setting [1] came to 0.04 µg/mL. Still for that read-out and setting: in the case of `O=c1ccc2ncc(=O)n3c2n1CC3CN1CCC(NCc2cnc(Cl)c(Cl)c2)CC1` (stereo not drawn) [Example 15, 2-[(4-{[(5,6-dichloro-3-pyridinyl)methyl]amino}-1-piperidinyl)methyl]-1,2-dihydro-3H,8H-2a,5,8a-triazaacenaphthylene-3,8-dione] it was under 0.018 µg/mL; in that of `Cc1ncc(CNC2CCN(C[C@@H]3Cn4c(=O)ccc5ccc(=O)n3c54)CC2)cc1Br.Cl` [Example 12, (1R)-1-[(4-{[(5-bromo-6-methyl-3-pyridinyl)methyl]amino}-1-piperidinyl)methyl]-1,2-dihydro-4H,9H-imidazo[1,2,3-ij]-1,8-naphthyridine-4,9-dione hydrochloride], under 0.019 µg/mL; in that of `O=c1ccc2ncc(=O)n3c2n1CC3CN1CCC(NCc2ccc(F)c(F)c2)CC1` (stereo not drawn) [Example 44, 2-[(4-{[(3,4-difluorophenyl)methyl]amino}-1-piperidinyl)methyl]-1,2-dihydro-3H,8H-2a,5,8a-triazaacenaphthylene-3,8-dione], 0.267 µg/mL (≈ 0.625 µM).

Turning to `O=c1ccc2ccc(=O)n3c2n1C[C@H]3CN1CCC(NCc2ccc(C(F)(F)F)nn2)CC1` [Example 18, (1R)-1-{[4-({[6-(trifluoromethyl)-3-pyridazinyl]methyl}amino)-1-piperidinyl]methyl}-1,2-dihydro-4H,9H-imidazo[1,2,3-ij]-1,8-naphthyridine-4,9-dione], the MIC under setting [1] is 0.432 µg/mL (≈ 0.938 µM). On the same count and under the same terms, in the case of `Cc1ncc(CNC2CCN(C[C@H]3Cn4c(=O)ccc5ncc(=O)n3c54)CC2)cc1Cl` [Example 53, (2S)-2-[(4-{[(5-chloro-6-methyl-3-pyridinyl)methyl]amino}-1-piperidinyl)methyl]-1,2-dihydro-3H,8H-2a,5,8a-triazaacenaphthylene-3,8-dione] it was 0.83 µg/mL (≈ 1.88 µM).
